# Test results taken from the supplement of paper PMC11061612.
# Tests used:
# Assay in all cases: Bliss excess, mean over the matrix (fraction); higher = more synergy
# [1] = test system: BT-474 (Breast Carcinoma)
# Method in brief: (§1)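 Bliss excess equals the observed combination effect minus the expected value EA + EB − EA·EB, where EA and EB are the effects of each agent alone. Combination Emax is the second-highest inhibition within the matrix. Inhibition was scaled from CellTiter-Glo 2.0 luminescence, with 0 set by vehicle wells and 1 by blank wells, after 72 hours of two-drug dosing of cells plated in 1536-well plates.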
# [2] = test system: CAL-85-1 (Breast Carcinoma)
# Method in brief: as §1
# [3] = test system: DK-MG (Glioblastoma)
# Method in brief: as §1
# [4] = test system: Daudi (Burkitt's Lymphoma)
# Method in brief: as §1
# [5] = test system: GRANTA-519 (B-Cell Non-Hodgkin's Lymphoma)
# Method in brief: as §1
# [6] = test system: HT-144 (Melanoma)
# Method in brief: as §1
# [7] = test system: JJN-3 (Plasma Cell Myeloma)
# Method in brief: as §1
# [8] = test system: MDA-MB-175-VII (Breast Carcinoma)
# Method in brief: as §1
# [9] = test system: NCI-H1648 (Lung Adenocarcinoma)
# Method in brief: as §1
# [10] = test system: NCI-H1944 (Lung Adenocarcinoma)
# Method in brief: as §1
# [11] = test system: NCI-H2009 (Lung Adenocarcinoma)
# Method in brief: as §1
# [12] = test system: NCI-H2170 (Squamous Cell Lung Carcinoma)
# Method in brief: as §1
# [13] = test system: NCI-H2452 (Mesothelioma)
# Method in brief: as §1
# [14] = test system: OVKATE (Ovarian Carcinoma)
# Method in brief: as §1
# [15] = test system: RPMI-8402 (T-Lymphoblastic Leukemia)
# Method in brief: as §1
# [16] = test system: SBC-3 (Small Cell Lung Carcinoma)
# Method in brief: as §1
# [17] = test system: SK-MEL-24 (Melanoma)
# Method in brief: as §1
# [18] = test system: SNU-1 (Gastric Carcinoma)
# Method in brief: as §1
# [19] = test system: SUP-HD1 (Hodgkin's Lymphoma)
# Method in brief: as §1
# [20] = test system: TOV-21G (Ovarian Carcinoma)
# Method in brief: as §1
Compound,Bliss excess [1],Bliss excess [2],Bliss excess [3],Bliss excess [4],Bliss excess [5],Bliss excess [6],Bliss excess [7],Bliss excess [8],Bliss excess [9],Bliss excess [10],Bliss excess [11],Bliss excess [12],Bliss excess [13],Bliss excess [14],Bliss excess [15],Bliss excess [16],Bliss excess [17],Bliss excess [18],Bliss excess [19],Bliss excess [20]
"CC1(C)CCC(CN2CCN(c3ccc(C(=O)NS(=O)(=O)c4ccc(NCC5CCOCC5)c([N+](=O)[O-])c4)c(Oc4cnc5[nH]ccc5c4)c3)CC2)=C(c2ccc(Cl)cc2)C1 [Venetoclax] + CCN(CCO)CCCOc1ccc2c(Nc3cc(CC(=O)Nc4cccc(F)c4)[nH]n3)ncnc2c1 [AZD2811] (first compound max 1 µM, 7x7, partner max 1 µM)",-0.0035,-0.032,-0.0784,0.005,0.234,-0.0132,0.169,-0.0228,-0.0235,-0.0272,-0.035,-0.0185,0.0268,-0.0661,-0.0241,0.0166,-0.053,0.0266,-0.0195,0.0149
"CC1(C)CCC(CN2CCN(c3ccc(C(=O)NS(=O)(=O)c4ccc(NCC5CCOCC5)c([N+](=O)[O-])c4)c(Oc4cnc5[nH]ccc5c4)c3)CC2)=C(c2ccc(Cl)cc2)C1 [Venetoclax] + Cn1cnc2c(F)c(Nc3ccc(Br)cc3Cl)c(C(=O)NOCCO)cc21 [Selumetinib] (first compound max 1 µM, 7x7, partner max 3 µM)",-0.0419,-0.0368,-0.0177,-0.0208,-0.03,-0.0616,0.0473,-0.0556,-0.0379,-0.0356,-0.024,-0.0427,-0.0501,-0.0584,-0.031,-0.032,-0.0001,-0.0541,-0.039,0.0133
"COc1cccc(OCCCN)c1-c1cc(Nc2cnc(C#N)cn2)n[nH]1 [Prexasertib] + CCc1c2c(nc3ccc(O)cc13)-c1cc3c(c(=O)n1C2)COC(=O)[C@]3(O)CC [SN-38] (first compound max 1 µM, 7x7, partner max 0.3 µM)",-0.0075,0.0699,-0.0146,-0.0078,0.0025,-0.0236,0.0314,-0.0027,0.0114,-0.006,0.132,-0.0326,0.103,-0.0292,-0.0152,-0.0766,-0.0557,-0.0357,-0.075,-0.122
"CC1(C)CCC(CN2CCN(c3ccc(C(=O)NS(=O)(=O)c4ccc(NCC5CCOCC5)c([N+](=O)[O-])c4)c(Oc4cnc5[nH]ccc5c4)c3)CC2)=C(c2ccc(Cl)cc2)C1 [Venetoclax] + C=CCn1c(=O)c2cnc(Nc3ccc(N4CCN(C)CC4)cc3)nc2n1-c1cccc(C(C)(C)O)n1 [AZD1775] (first compound max 1 µM, partner max 1 µM)",-0.0668,-0.0334,-0.0003,-0.0267,0.0734,-0.0314,-0.0187,-0.0111,-0.0451,-0.0808,-0.0212,-0.0548,0.0036,-0.0169,-0.0203,0.043,-0.0473,-0.0156,-0.0256,-0.0261
"Cc1c2c(nn1C)CSCc1cc(n(C)n1)CSc1cc(c3ccccc3c1)OCCCc1c(C(=O)O)n(C)c3c-2c(Cl)ccc13 [AZD5991] + C1CN(CCC1(C(=O)N[C@@H](CCO)C2=CC=C(C=C2)Cl)N)C3=NC=NC4=C3C=CN4 [Capivasertib] (first compound max 1 µM, 7x7, partner max 3 µM)",0.0359,-0.0289,0.047,0.0353,-0.0295,0.0582,-0.041,0.0261,-0.0326,0.0254,-0.0207,-0.0324,-0.0146,-0.0461,0.0508,-0.0316,-0.0196,-0.0176,-0.0833,-0.0249
"Cc1c2c(nn1C)CSCc1cc(n(C)n1)CSc1cc(c3ccccc3c1)OCCCc1c(C(=O)O)n(C)c3c-2c(Cl)ccc13 [AZD5991] + CC1(C)CCC(CN2CCN(c3ccc(C(=O)NS(=O)(=O)c4ccc(NCC5CCOCC5)c([N+](=O)[O-])c4)c(Oc4cnc5[nH]ccc5c4)c3)CC2)=C(c2ccc(Cl)cc2)C1 [Venetoclax] (first compound max 1 µM, 7x7, partner max 1 µM)",-0.0279,-0.0296,-0.0696,0.0382,0.0312,0.005,0.0514,-0.0306,-0.0482,0.0091,-0.0158,-0.0333,-0.0471,-0.0527,0.035,0.0727,-0.0426,0.136,0.0788,-0.0115
"Cc1c2c(nn1C)CSCc1cc(n(C)n1)CSc1cc(c3ccccc3c1)OCCCc1c(C(=O)O)n(C)c3c-2c(Cl)ccc13 [AZD5991] + CCN(CCO)CCCOc1ccc2c(Nc3cc(CC(=O)Nc4cccc(F)c4)[nH]n3)ncnc2c1 [AZD2811] (first compound max 1 µM, 7x7, partner max 1 µM)",0.0314,-0.0011,-0.0543,0.263,0.109,0.0561,0.0225,0.0441,0.0051,0.0457,0.071,0.0348,-0.0486,-0.09,0.0412,0.0082,0.0258,0.0586,0.0311,0.0576
"NC1(C(=O)N[C@@H](CCO)c2ccc(Cl)cc2)CCN(c2ncnc3[nH]ccc23)CC1 [Capivasertib] + C[C@@H]1COCCN1C2=NC(=NC(=C2)C3(CC3)[S@](=N)(=O)C)C4=C5C=CNC5=NC=C4 [AZD6738] (first compound max 10 µM, 7x7, partner max 10 µM)",0.0314,-0.0062,-0.0405,0.0167,-0.0136,-0.0292,-0.0181,-0.0407,-0.0878,-0.0268,-0.0483,-0.0011,-0.0827,-0.0516,-0.0768,-0.0479,-0.027,0.0135,-0.0508,-0.0241
"Cn1cnc2c(F)c(Nc3ccc(Br)cc3Cl)c(C(=O)NOCCO)cc21 [Selumetinib] + C[C@@H]1COCCN1C2=NC(=NC(=C2)C3(CC3)[S@](=N)(=O)C)C4=C5C=CNC5=NC=C4 [AZD6738] (first compound max 10 µM, 7x7, partner max 10 µM)",-0.0485,0.0508,0.059,0.0042,0.0067,-0.0011,0.0533,0.029,-0.0259,0.01,-0.0313,-0.0464,-0.0476,-0.0282,-0.0196,-0.081,0.0125,0.0537,-0.0549,0.0142
"NC1(C(=O)N[C@@H](CCO)c2ccc(Cl)cc2)CCN(c2ncnc3[nH]ccc23)CC1 [Capivasertib] + COc1nnc2ccc(N3CCC(c4ccc(OCCN5CCN(C)C(=O)[C@H]5C)cc4)CC3)nn12 [AZD5153] (first compound max 10 µM, 7x7, partner max 1 µM)",0.0761,0.0009,0.0534,0.045,-0.0148,0.0653,-0.0242,0.0129,-0.0694,-0.0124,0.0374,0.0383,-0.0192,-0.0368,-0.0484,-0.0135,0.0073,0.0177,-0.047,0.0011
"CC1(C)CCC(CN2CCN(c3ccc(C(=O)NS(=O)(=O)c4ccc(NCC5CCOCC5)c([N+](=O)[O-])c4)c(Oc4cnc5[nH]ccc5c4)c3)CC2)=C(c2ccc(Cl)cc2)C1 [Venetoclax] + C[C@@H](Nc1cc(F)cc(F)c1)c1cc(C(=O)N(C)C)cc2c(=O)cc(N3CCOCC3)oc12 [AZD8186] (first compound max 1 µM, 7x7, partner max 3 µM)",-0.055,-0.055,-0.0425,-0.0238,0.0281,-0.0295,-0.0092,-0.0321,-0.0603,-0.034,-0.0281,-0.0739,0.0255,-0.0334,0.0028,-0.034,-0.0585,-0.0157,-0.025,-0.0271
"CN(CCO)CC[C@H](CSc1ccccc1)Nc1ccc(S(=O)(=O)NC(=O)c2ccc(N3CCC([C@@H](O)c4ccccc4-c4ccc(Cl)cc4)CC3)cc2)cc1S(=O)(=O)C(F)(F)F [AZD4320] + C=CCn1c(=O)c2cnc(Nc3ccc(N4CCN(C)CC4)cc3)nc2n1-c1cccc(C(C)(C)O)n1 [AZD1775] (first compound max 1 µM, partner max 1 µM)",-0.0232,0.0019,-0.0789,-0.0249,0.0729,0.0392,-0.0535,0.0035,-0.0353,0.0312,–,0.0131,0.0257,0.0271,0.0269,-0.0172,0.001,0.127,-0.0383,-0.0299
